Experimental data reported in ChEMBL document CHEMBL1129981 (J Med Chem, 1997).

Tests used:
[1] = molecular target: Sodium-dependent serotonin transporter (Rattus norvegicus, UniProt P31652); experiment: Inhibition of uptake of [3H]5-HT in synaptosomes from rat cortex; type: functional, subcellular, Brain
[2] = molecular target: T1, Adrenergic receptor alpha-2 (Rattus norvegicus, UniProt P22086+P19328+P22909); experiment: Ability to displace [3H]rauwolscine from Alpha-2 adrenergic receptor in rat cortical membranes; type: cell membranes
T1 sequence (P22086 whole entry): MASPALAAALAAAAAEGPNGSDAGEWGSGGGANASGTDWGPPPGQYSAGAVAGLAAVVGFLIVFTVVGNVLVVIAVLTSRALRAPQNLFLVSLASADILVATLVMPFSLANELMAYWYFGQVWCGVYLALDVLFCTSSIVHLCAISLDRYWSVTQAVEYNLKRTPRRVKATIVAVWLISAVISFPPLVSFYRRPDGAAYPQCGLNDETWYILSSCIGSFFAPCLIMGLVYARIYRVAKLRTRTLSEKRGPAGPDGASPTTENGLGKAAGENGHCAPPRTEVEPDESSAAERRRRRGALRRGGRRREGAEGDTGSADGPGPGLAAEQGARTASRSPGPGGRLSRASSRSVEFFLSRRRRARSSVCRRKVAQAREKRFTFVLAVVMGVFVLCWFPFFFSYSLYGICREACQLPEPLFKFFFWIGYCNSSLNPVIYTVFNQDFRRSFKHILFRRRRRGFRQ
T1 sequence (P19328 whole entry): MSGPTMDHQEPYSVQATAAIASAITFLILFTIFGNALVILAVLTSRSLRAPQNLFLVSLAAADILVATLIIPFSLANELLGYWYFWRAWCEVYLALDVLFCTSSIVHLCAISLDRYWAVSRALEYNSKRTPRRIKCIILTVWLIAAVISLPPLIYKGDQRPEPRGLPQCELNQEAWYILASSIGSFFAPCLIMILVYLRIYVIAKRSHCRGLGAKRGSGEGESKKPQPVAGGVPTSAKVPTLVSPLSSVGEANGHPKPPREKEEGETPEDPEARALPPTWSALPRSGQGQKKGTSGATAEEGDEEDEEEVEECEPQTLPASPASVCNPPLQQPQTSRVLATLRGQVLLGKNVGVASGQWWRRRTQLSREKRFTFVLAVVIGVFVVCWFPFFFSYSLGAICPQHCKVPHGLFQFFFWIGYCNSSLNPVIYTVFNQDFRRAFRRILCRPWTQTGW
T1 sequence (P22909 whole entry): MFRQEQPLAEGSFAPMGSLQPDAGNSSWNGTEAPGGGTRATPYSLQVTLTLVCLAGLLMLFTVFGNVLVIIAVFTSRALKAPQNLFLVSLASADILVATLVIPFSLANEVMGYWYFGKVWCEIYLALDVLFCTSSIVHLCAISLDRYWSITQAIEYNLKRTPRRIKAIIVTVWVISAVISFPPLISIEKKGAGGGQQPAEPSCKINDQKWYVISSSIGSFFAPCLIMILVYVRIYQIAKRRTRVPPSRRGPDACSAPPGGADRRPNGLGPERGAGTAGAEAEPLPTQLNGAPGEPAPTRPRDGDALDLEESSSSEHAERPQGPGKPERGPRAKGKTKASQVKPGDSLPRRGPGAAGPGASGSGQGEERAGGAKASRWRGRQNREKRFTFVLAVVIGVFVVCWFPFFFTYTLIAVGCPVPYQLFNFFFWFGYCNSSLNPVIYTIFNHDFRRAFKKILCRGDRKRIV

Sodium-dependent serotonin transporter, sequence (P31652 whole entry): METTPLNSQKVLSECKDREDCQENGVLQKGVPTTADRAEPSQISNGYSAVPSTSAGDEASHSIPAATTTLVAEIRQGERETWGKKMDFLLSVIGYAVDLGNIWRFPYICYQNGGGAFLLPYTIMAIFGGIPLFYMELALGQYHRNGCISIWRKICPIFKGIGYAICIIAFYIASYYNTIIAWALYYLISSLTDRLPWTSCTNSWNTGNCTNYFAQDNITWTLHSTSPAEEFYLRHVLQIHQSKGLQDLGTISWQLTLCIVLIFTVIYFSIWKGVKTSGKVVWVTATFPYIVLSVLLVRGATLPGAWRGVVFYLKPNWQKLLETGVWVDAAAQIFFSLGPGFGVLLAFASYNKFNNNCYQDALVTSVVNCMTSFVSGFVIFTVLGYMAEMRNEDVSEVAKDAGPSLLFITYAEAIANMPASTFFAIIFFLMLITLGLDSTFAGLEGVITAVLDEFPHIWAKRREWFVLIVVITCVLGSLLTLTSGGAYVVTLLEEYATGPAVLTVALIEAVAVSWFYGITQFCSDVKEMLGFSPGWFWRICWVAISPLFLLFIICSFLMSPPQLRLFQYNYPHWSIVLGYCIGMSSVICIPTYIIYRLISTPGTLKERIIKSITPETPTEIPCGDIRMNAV

SMILES	IC50 [1]	Ki [2]
COc1cccc2c1CCC[C@H]2CN(C)CCc1ccc2c(c1)CCN2	31.8 nM	3.42 nM
COc1cccc2c1CCC[C@H]2CN(C)CCc1ccc2c(c1)CCN2S(=O)(=O)C(F)(F)F	132 nM	158 nM
CN(CCc1ccc2c(c1)OCO2)C[C@@H]1CCCc2c1ccc1ccoc21	101 nM	4.88 nM
CCN(CCc1ccc2c(c1)OCO2)C[C@@H]1CCCc2c(OC)cccc21	158 nM	5.73 nM
COc1cccc2c1CCC[C@H]2CN(C)CCc1ccc2sccc2c1	52.8 nM	17.9 nM
COc1cccc2c1CCC[C@H]2CN(C)CCc1ccc2c(c1)CCO2	14.6 nM	1.76 nM
COc1cccc2c1CCC[C@H]2CNCCc1ccc2c(c1)OCO2	414 nM	88.2 nM
COc1cccc2c1CCC[C@H]2CN(CCc1ccc2c(c1)OCO2)CC1CC1		54.3 nM
COc1cccc2c1CCC[C@H]2CN(C)CCc1ccc2ncccc2c1	46.7 nM	3.91 nM
COc1cccc2c1CCCC2CN(C)CCc1ccc2c(c1)OCO2 (configuration not stated)	20.6 nM	6.71 nM
COc1cccc2c1CCC[C@H]2CN(C)CCc1ccc2c(c1)CCS2	24.3 nM	2.65 nM
C#CCN(CCc1ccc2c(c1)OCO2)C[C@@H]1CCCc2c(OC)cccc21		184 nM
COc1cccc2c1CCC[C@H]2CN(C)CCc1ccc2c(c1)OCO2	12.7 nM	1.7 nM
COc1cccc2c1CCC[C@H]2CN(C)CCc1ccc2c(c1)CS(=O)(=O)C2	6.67 nM	1.78 nM
COc1cccc2c1CCC[C@H]2CN(C)CCc1ccc2[nH]cnc2c1	11.3 nM	5.21 nM
CN(CCc1ccc2c(c1)OCO2)CC1CCCc2c1ccc1c2OCO1 (configuration not stated)	60.3 nM	11 nM
COc1ccc2c(c1OC)CCC[C@H]2CN(C)CCc1ccc2c(c1)OCO2	757 nM	15.5 nM
COc1cccc2c1CCC[C@H]2CN(C)CCc1ccc2c(c1)COC2	229 nM	2.64 nM
COc1cccc2c1CCC[C@H]2CN(C)CCc1ccc2c(c1)CCS2(=O)=O	33.7 nM	4.67 nM
COc1cccc2c1CCC[C@H]2CN(C)CCc1ccc2nc(N)sc2c1	9.47 nM	5.67 nM
COc1cccc2c1CCC[C@H]2CN(C)CCc1ccc2ncoc2c1	5.25 nM	1.22 nM
COc1cccc2c1C(CN(C)CCc1ccc3c(c1)OCO3)CCC2 (configuration not stated)	1430 nM	2.88 nM
COc1cccc2c1CCC[C@H]2CN(C)CCc1ccc2c(c1)CN(S(=O)(=O)C(F)(F)F)C2	59.8 nM	142 nM
COc1cccc2c1CCC[C@H]2CN(C)CCc1ccc2occc2c1	17.6 nM	2.78 nM
COc1ccc2c(c1)C(CN(C)CCc1ccc3c(c1)OCO3)CCC2 (configuration not stated)	1420 nM	57.5 nM
COc1cccc2c1CCC[C@H]2CN(C)CCc1ccc2c(c1)NCC2	79.1 nM	11.7 nM
COc1cccc2c1CCC[C@H]2CN(C)CCc1ccc2nc(C)sc2c1	86.7 nM	2.12 nM
COc1cccc2c1CCC[C@H]2CN(C)CCc1ccc2nccnc2c1	44.4 nM	1.81 nM

SMILES	IC50 [1]	Ki [2]
COc1cccc2c1CCC[C@H]2CN(C)CCc1ccc2nc(O)oc2c1	19.4 nM	4.51 nM
COc1cccc2c1CCC[C@H]2CN(C)CCc1ccc2c(c1)N(S(=O)(=O)C(F)(F)F)CC2	183 nM	125 nM
CN(CCc1ccc2c(c1)OCO2)C[C@@H]1CCCc2c1ccc1c2OCC1	26.7 nM	5.57 nM
C1=C(CC2=NCCN2)CCc2ccccc21 [NAPAMEZOLE]	887 nM	4.17 nM
COc1cccc2c1CCC[C@H]2CN(C)CCc1ccc2nc(Cl)sc2c1	38.2 nM	5.45 nM
COc1cccc2c1CCC[C@H]2CN(C)CCc1ccc2cccnc2c1	18.1 nM	6.79 nM
COc1cccc2c1CCC[C@H]2CN(C)CCc1ccc2c(c1)CN(S(C)(=O)=O)C2	5.81 nM	5.33 nM
COc1cccc2c1CCC[C@H]2CN(C)CCc1ccc2ncsc2c1	8.94 nM	2.73 nM
COc1cccc2c1CCC[C@H]2CN(CCc1ccc2c(c1)OCO2)C1CC1		266 nM
COc1cccc2c1CCC[C@H]2CN(C)CCc1ccc2nc(C)oc2c1	42.8 nM	9.27 nM
CN(CCc1ccc2c(c1)OCO2)CC1CCCc2c(NS(C)(=O)=O)cccc21 (configuration not stated)	658 nM	19 nM
CN(CCc1ccc2c(c1)OCO2)CC1CCCc2c(O)cccc21 (configuration not stated)	1240 nM	7.54 nM
COc1ccc2c(c1)CCCC2CN(C)CCc1ccc2c(c1)OCO2 (configuration not stated)	469 nM	23.5 nM
COc1cccc2c1CCC[C@H]2CN(C)CCc1ccc2c(c1)N(S(C)(=O)=O)CC2	38.9 nM	5.35 nM
CCOc1cccc2c1CCC[C@H]2CN(C)CCc1ccc2c(c1)OCO2	198 nM	1.86 nM
COc1cccc2c1CCC[C@H]2CN(C)CCc1ccc2c(c1)CCC2	20.5 nM	8.99 nM
COc1cccc2c1CCC[C@H]2CN(C)CCc1ccc2[nH]c(O)nc2c1	16.3 nM	10.8 nM
COc1cccc2c1CCC[C@H]2CN(C)CCc1ccc2ccncc2c1	53.9 nM	6.07 nM
CSc1cccc2c1CCCC2CN(C)CCc1ccc2c(c1)OCO2 (configuration not stated)	117 nM	21 nM
COc1cccc2c1CCC[C@H]2CN(C)CCc1ccc2c(c1)OCC2	18.1 nM	1.88 nM
COc1cccc2c1CCC[C@@H]2CN(C)CCc1ccc2c(c1)OCO2	1310 nM	88.6 nM
COc1cccc2c1CCC[C@H]2CN(C)CCc1ccc2c(c1)C=CS2(=O)=O	51 nM	4.82 nM
CN(CCc1ccc2c(c1)OCO2)CC1CCCc2ccccc21 (configuration not stated)	1090 nM	8.19 nM
COc1cccc2c1CCC[C@H]2CN(C)CCc1ccc2c(c1)CCN2S(C)(=O)=O	35 nM	4.62 nM
COc1cccc2c1CCC[C@H]2CN(C)CCc1ccc2oc(O)nc2c1	68.3 nM	7.5 nM
COc1cccc2c1CCC[C@H]2CN(C)CCc1ccc2c(c1)CC(=O)N2	22.2 nM	4.91 nM
COc1cccc2c1CCC[C@H]2CN(C)CCc1ccc2c(c1)CNC2	11.6 nM	5.99 nM
